For data set [1], the system named is Hep G2 cells. Put plainly: In vitro expression of firefly-luciferase, Hep G2. Format: cell-based. Particulars: cirRNA (SEQ ID NO: 1) LNPs; firefly-luciferase luminescence; Hep G2 cells. On the procedure:
(§1) RAW 264.7 and Hep G2 cells were transfected with 100 ng/mL of RNA-LNPs encoding for firefly-luciferase. At 72 hours post transfection, the cells were washed and lysed. The luciferase expression was determined in the cell lysates with the luciferase assay reagent kit (Promega), according to the kit protocol, luciferase activity was measured by a luminometer.

Data set [2] deals with RAW 264.7 cells. The data set is described as follows: In vitro expression of firefly-luciferase, RAW 264.7. Particulars: cirRNA (SEQ ID NO: 1) LNPs; firefly-luciferase luminescence; RAW 264.7 cells. The format is cell-based. On the procedure: as §1
The subject of data set [3] is BALB/C mice. The data set is described as follows: In vivo expression, whole-body luminescence (IVIS). Particulars: cirRNA (SEQ ID NO: 1) LNPs, BALB/C mice. On the procedure:
6-8 week old, female BALB/C mice were injected with 0.05 mg*kg-1 of RNA-LNPs encoding for firefly-luciferase by intravenous injection. At 6 hours post injection, animals were intraperitoneally injected with 15 mg/ml of Luciferin substrate and whole-body luminescence was determined by a bioluminescent in vivo imaging system (IVIS).

The test system of data set [4] is RAW 264.7 cells. Put plainly: In vitro toxicity (CellTiter-Glo cell viability), RAW 264.7.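 Note: percent of untreated cells luminescence signal.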 The format is cell-based. The following applies: cirRNA (SEQ ID NO: 1) LNPs; RAW 264.7 cells. On the procedure: (§2) RAW 264.7 and Hep G2 cells were transfected with 1 μg/mL RNA-LNPs. At 72 hours post transfection, cell viability was determined with the CellTiter-Glo® reagent kit, according to the kit protocol, measured by a luminometer.
(§3) The cell viability was calculated according to the following formula: […]
In general terms: Cellular ATP, detected with luciferase, serves as a proxy for viable cell number.

The test system of data set [5] is Hep G2 cells. The data set is described as follows: In vitro toxicity (CellTiter-Glo cell viability), Hep G2.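 Note: percent of untreated cells luminescence signal.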 The format is cell-based. Particulars: cirRNA (SEQ ID NO: 1) LNPs; Hep G2 cells. On the procedure: as §2, §3

For `CCCCC/C=C\C/C=C\CCCCCCCCN(CCCCCC(=O)OCC(CCCCCCCC)CCCCCCCCCC)CCOC(=O)NCCCN(C)C` (stereo not shown) [Lipid 81, 2-octyldodecyl 2-methyl-11-((9Z,12Z)-octadeca-9,12-dien-1-yl)-7-oxo-8-oxa-2,6,11-triazaheptadecan-17-oate], the “In vitro Expression HepG2” value in data set [1] was 6.71E+04. Besides, in data set [2], the “In vitro Expression RAW” value worked out at 1.56E+03. Moreover, the “In vivo Expression (Whole Body)” value in data set [3] amounted to 1.15E+04. In data set [4], the “In vitro Viability RAW” value is given as 107%. In addition, in data set [5], the “In vitro Viability HepG2” value is 121%.
As to `CCCCC/C=C\C/C=C\CCCCCCCCN(CCCCCC(=O)OCC/C=C\CCCCC)CCOC(=O)NCc1ccncc1` [Lipid 99, (Z)-non-3-en-1-yl 6-(((9Z,12Z)-octadeca-9,12-dien-1-yl)(2-(((pyridin-4-ylmethyl)carbamoyl)oxy)ethyl)amino)hexanoate], the “In vitro Expression HepG2” value in data set [1] was 1.13E+04. Moreover, in data set [2], the “In vitro Expression RAW” value is 1.01E+04. Besides, in data set [3], the “In vivo Expression (Whole Body)” value is reported as 5.53E+07. Besides, in data set [4], the “In vitro Viability RAW” value turned out to be 137%. The “In vitro Viability HepG2” value in data set [5] came out at 78%.
For `CCCCCCCOC(=O)CCCCCCCCCN(CCCCCCCCCC(=O)OCCCCCCC)CCOC(=O)NCCN1CCCCC1` [Lipid 118, diheptyl 10,10′-((2-(((2-(piperidin-1-yl)ethyl)carbamoyl)oxy)ethyl)azanediyl)bis(decanoate)] the same measures were 1.43E+03, 1.42E+04, 7.90E+06, 8% and 19%.
Consider `CCCCCCOC(=O)CCCCCCCCCCN(CCCCCCCCCCC(=O)OCCCCCC)CCOC(=O)NCCN1CCOCC1` [Lipid 139, dihexyl 11,11′-((2-(((2-morpholinoethyl)carbamoyl)oxy)ethyl)azanediyl)diundecanoate], for which the “In vitro Expression HepG2” value in data set [1] is on record as 4.85E+01. For the same compound, in data set [2], the “In vitro Expression RAW” value came out at 1.64E+02. For the same compound, the “In vivo Expression (Whole Body)” value in data set [3] came to 3.48E+06. Moreover, in data set [4], the “In vitro Viability RAW” value was found to be 8%. The “In vitro Viability HepG2” value in data set [5] is 16%.
For `CCCCCCCCCCCOC(=O)CCCCCN(CCCCCC(=O)OCCCCCCCCCCC)CCOC(=O)NCCN1CCN(C)CC1` [Lipid 156, diundecyl 6,6′-((2-(((2-(4-methylpiperazin-1-yl)ethyl)carbamoyl)oxy)ethyl)azanediyl)dihexanoate], in that order: 2.86E+04, 1.67E+03, 4.92E+04, 93% and 84%.
Turning to `CCCCCCCCCCCOC(=O)CCCCCN(CCCCCCCC(=O)OC(CCCCCCCC)CCCCCCCC)CCOC(=O)NCCN1CCN(C)CC1` [Lipid 160, heptadecan-9-yl 8-((2-(((2-(4-methylpiperazin-1-yl)ethyl)carbamoyl)oxy)ethyl)(6-oxo-6-(undecyloxy)hexyl)amino)octanoate], the “In vitro Expression HepG2” value in data set [1] is reported as 6.38E+05. For the same compound, the “In vitro Expression RAW” value in data set [2] was 1.94E+04. Moreover, the “In vivo Expression (Whole Body)” value in data set [3] was determined as 4.44E+05. The “In vitro Viability RAW” value in data set [4] worked out at 93%. Moreover, the “In vitro Viability HepG2” value in data set [5] worked out at 94%.
For `CCCCCCCCCC(=O)OCCCCCCCN(CCCCCCCOC(=O)CCCCCCCCC)CCOC(=O)NCc1ncc[nH]1` [Lipid 176] the same measures were 6.28E+03, 4.83E+04, 1.31E+07, 93% and 88%.
Take `CCCCC/C=C\CCOC(=O)CCCCCN(CCCCCCCCOC(=O)C(CCCCCC)CCCCCCCC)CCOC(=O)NCCN(C)C` (stereo not shown) [Lipid 184]: the “In vitro Expression HepG2” value in data set [1] is 9.87E+04. Also, the “In vitro Expression RAW” value in data set [2] turned out to be 1.93E+03. For the same compound, in data set [3], the “In vivo Expression (Whole Body)” value worked out at 5.28E+07. Besides, the “In vitro Viability RAW” value in data set [4] was determined as 88%. Further, the “In vitro Viability HepG2” value in data set [5] is recorded as 91%.

The values above are taken from patent US12691070B2, “Cationic lipids and preparation method thereof” (RiboX Therapeutics HK Limited, priority 2023, dated 2026).
